This is an account of results in US11247990B1, “Bicyclic fused pyridine compounds as inhibitors of TAM kinases” (ARRAY BIOPHARMA INC., priority 2017, dated 2022).

Conditions in all cases: averaged IC50
Assay [1] deals with His-tagged recombinant human AXL cytoplasmic domain (Homo sapiens (Human), UniProt P30530). Briefly: AXL Enzyme Assay (LanthaScreen Eu Kinase Binding, TR-FRET). The procedure: Compounds of Formula I were screened for their ability to inhibit AXL kinase using Invitrogen's LanthaScreen™ Eu Kinase Binding technology. […] After a 60-minute incubation at 22° C., the reaction was measured using a PerkinElmer EnVision multimode plate reader via TR-FRET dual wavelength detection, and the percent of control (POC) was calculated using a ratiometric emission factor. […] The POC values are fit to a 4 parameter logistic curve and the IC50 value is point where the curve crosses 50 POC.
Sequence of His-tagged recombinant human AXL cytoplasmic domain (P30530 473-894): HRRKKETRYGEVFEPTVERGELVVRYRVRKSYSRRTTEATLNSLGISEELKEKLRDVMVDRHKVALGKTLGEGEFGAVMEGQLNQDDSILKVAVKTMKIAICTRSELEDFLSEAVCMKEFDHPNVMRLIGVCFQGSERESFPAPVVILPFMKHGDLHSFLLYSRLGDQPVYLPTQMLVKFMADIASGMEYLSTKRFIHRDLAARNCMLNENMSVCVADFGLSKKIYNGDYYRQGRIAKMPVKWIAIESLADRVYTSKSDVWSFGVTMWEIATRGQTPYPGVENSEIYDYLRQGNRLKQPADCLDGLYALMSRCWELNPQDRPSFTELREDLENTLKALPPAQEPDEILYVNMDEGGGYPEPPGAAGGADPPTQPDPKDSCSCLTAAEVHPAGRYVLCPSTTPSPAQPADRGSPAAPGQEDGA
(Time-resolved FRET reads energy transfer from a long-lived donor to a nearby acceptor.)

Assay [2] concerns the target His-tagged recombinant human MER cytoplasmic domain (Homo sapiens (Human), UniProt Q12866). Nature of the assay: MER Enzyme Assay (LanthaScreen Eu Kinase Binding, TR-FRET). The procedure: Compounds of Formula I were screened for their ability to inhibit MER kinase using Invitrogen's LanthaScreen™ Eu Kinase Binding technology. […] After a 60-minute incubation at 22° C., the reaction was measured using a PerkinElmer EnVision multimode plate reader via TR-FRET dual wavelength detection, and the percent of control (POC) was calculated using a ratiometric emission factor. […] The POC values are fit to a 4 parameter logistic curve and the IC50 value is point where the curve crosses 50 POC.

Assay [3] addresses GST-tagged recombinant human TYRO3 kinase domain (Homo sapiens (Human), UniProt Q06418). Briefly: TYRO3 Enzyme Assay (LanthaScreen Eu Kinase Binding, TR-FRET). The procedure: Compounds of Formula I were screened for their ability to inhibit TYRO3 kinase using Invitrogen's LanthaScreen™ Eu Kinase Binding technology. […] After a 60-minute incubation at 22° C., the reaction was measured using a PerkinElmer EnVision multimode plate reader via TR-FRET dual wavelength detection, and the percent of control (POC) calculated using a ratiometric emission factor. […] The POC values were fit to a 4 parameter logistic curve and the IC50 value is point where the curve crosses 50 POC.

Sequence of GST-tagged recombinant human TYRO3 kinase domain (Q06418 518-790): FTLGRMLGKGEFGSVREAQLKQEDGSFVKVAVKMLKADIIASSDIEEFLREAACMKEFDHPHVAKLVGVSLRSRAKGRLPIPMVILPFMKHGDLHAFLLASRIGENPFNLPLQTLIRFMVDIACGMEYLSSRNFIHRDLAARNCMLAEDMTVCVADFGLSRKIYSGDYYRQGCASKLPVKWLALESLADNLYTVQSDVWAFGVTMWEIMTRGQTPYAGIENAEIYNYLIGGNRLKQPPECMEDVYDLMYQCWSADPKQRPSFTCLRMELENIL
Sequence of His-tagged recombinant human MER cytoplasmic domain (Q12866 527-999): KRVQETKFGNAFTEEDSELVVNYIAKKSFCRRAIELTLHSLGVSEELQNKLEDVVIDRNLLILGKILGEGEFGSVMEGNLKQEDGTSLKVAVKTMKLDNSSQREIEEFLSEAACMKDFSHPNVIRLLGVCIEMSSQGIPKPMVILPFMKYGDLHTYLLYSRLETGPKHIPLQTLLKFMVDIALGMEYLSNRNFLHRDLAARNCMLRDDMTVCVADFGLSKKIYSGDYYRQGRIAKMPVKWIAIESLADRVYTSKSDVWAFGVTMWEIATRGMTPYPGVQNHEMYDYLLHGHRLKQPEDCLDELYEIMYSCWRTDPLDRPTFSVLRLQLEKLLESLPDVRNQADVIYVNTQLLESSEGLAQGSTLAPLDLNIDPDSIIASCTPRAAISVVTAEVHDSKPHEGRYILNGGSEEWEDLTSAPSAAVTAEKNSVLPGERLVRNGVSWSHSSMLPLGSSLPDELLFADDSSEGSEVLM

The IC50 is the point on the concentration scale where inhibition reaches its midpoint. With `CNc1cc2c(cn1)c(-c1ccc(CN3CCN(C)CC3)cc1)nn2[C@H]1CC[C@@H](Oc2ccc(=O)n(C)n2)CC1` [Example 27, 2-methyl-6-(((1s,4s)-4-(6-(methylamino)-3-(4-((4-methylpiperazin-1-yl)methyl)phenyl)-1H-pyrazolo[4,3-c]pyridin-1-yl)cyclohexyl)oxy)pyridazin-3(2H)-one], the IC50 in assay [1] and in assay [2] was less than 10 nM each time.
Consider `CCn1nc(O[C@H]2CC[C@@H](n3nc(-c4ccc(CN5CCN(C)CC5)cc4)c4cnc(NC)cc43)CC2)ccc1=O` [Example 79, 2-ethyl-6-(((1s,4s)-4-(6-(methylamino)-3-(4-((4-methylpiperazin-1-yl)methyl)phenyl)-1H-pyrazolo[4,3-c]pyridin-1-yl)cyclohexyl)oxy)pyridazin-3(2H)-one], for which the half-maximal inhibitory concentration (IC50) in assay [1] is less than 10 nM.
`CNc1cc2c(cn1)c(-c1cnn(C)c1)nn2[C@H]1CC[C@@H](Oc2ncccc2F)CC1` [Example 122, 1-((1s,4s)-4-((3-fluoropyridin-2-yl)oxy)cyclohexyl)-N-methyl-3-(1-methyl-1H-pyrazol-4-yl)-1H-pyrazolo[4,3-c]pyridin-6-amine]: the concentration for half-maximal inhibition (IC50) in assay [1] and in assay [2] was less than 10 nM throughout.
Regarding `CNc1cc2c(cn1)c(-c1cnn(C)c1)nn2[C@H]1CC[C@@H](Oc2ncccc2C(F)(F)F)CC1` [Example 125, N-methyl-3-(1-methyl-1H-pyrazol-4-yl)-1-((1s,4s)-4-((3-(trifluoromethyl)pyridin-2-yl)oxy)cyclohexyl)-1H-pyrazolo[4,3-c]pyridin-6-amine], the concentration for half-maximal inhibition (IC50) in assay [1] and in assay [2] was less than 10 nM in each case.
Take `CCNc1cc2c(cn1)c(-c1cnn(C)c1)nn2[C@H]1CC[C@@H](Oc2cnn(C)c2C)CC1` [Example 226, 1-((1s,4s)-4-((1,5-dimethyl-1H-pyrazol-4-yl)oxy)cyclohexyl)-N-ethyl-3-(1-methyl-1H-pyrazol-4-yl)-1H-pyrazolo[4,3-c]pyridin-6-amine]: the half-maximal inhibitory concentration (IC50) in assay [3] lay in the range of 1000 to 10000 nM.
For the molecule `CNC(=O)c1ncccc1O[C@H]1CC[C@@H](n2nc(-c3cnn(C)c3)c3cnc(NC)cc32)CC1` [Example 276, N-methyl-3-(((1s,4s)-4-(3-(1-methyl-1H-pyrazol-4-yl)-6-(methylamino)-1H-pyrazolo[4,3-c]pyridin-1-yl)cyclohexyl)oxy)picolinamide], the IC50 in assay [3] was 1000 to 10000 nM.
On the same count and under the same terms, as for `CNc1cc2c(cn1)c(-c1cnn(C)c1)nn2[C@H]1CC[C@@H](Oc2cccnc2C(=O)N(C)C)CC1` [Example 277, N,N-dimethyl-3-(((1s,4s)-4-(3-(1-methyl-1H-pyrazol-4-yl)-6-(methylamino)-1H-pyrazolo[4,3-c]pyridin-1-yl)cyclohexyl)oxy)picolinamide], the figure is 1000 to 10000 nM; as for `CNc1cc2c(cn1)c(-c1cnn(C)c1)nn2[C@H]1CC[C@@H](Oc2cccc(OCC(F)(F)F)n2)CC1` [Example 302, N-methyl-3-(1-methyl-1H-pyrazol-4-yl)-1-((1s,4s)-4-((6-(2,2,2-trifluoroethoxy)pyridin-2-yl)oxy)cyclohexyl)-1H-pyrazolo[4,3-c]pyridin-6-amine], 1000 to 10000 nM; as for `Cn1cc(-c2nn([C@H]3CC[C@@H](Oc4cn(C)nc4C(F)(F)F)CC3)c3cc(Nc4ccccc4)ncc23)cn1` [Example 303, 3-(1-methyl-1H-pyrazol-4-yl)-1-((1s,4s)-4-((1-methyl-3-(trifluoromethyl)-1H-pyrazol-4-yl)oxy)cyclohexyl)-N-phenyl-1H-pyrazolo[4,3-c]pyridin-6-amine], less than 10 nM.
Same read-out and setting: as for `Cn1cc(-c2nn([C@H]3CC[C@@H](Oc4cccnc4C(F)(F)F)CC3)c3cc(Nc4ccccc4)ncc23)cn1` [Example 304, 3-(1-methyl-1H-pyrazol-4-yl)-N-phenyl-1-((1s,4s)-4-((2-(trifluoromethyl)pyridin-3-yl)oxy)cyclohexyl)-1H-pyrazolo[4,3-c]pyridin-6-], the figure is less than 10 nM.
As for `Cn1cc(-c2nn([C@H]3CC[C@@H](Oc4ncccc4C(F)(F)F)CC3)c3cc(Nc4ccccc4)ncc23)cn1` [Example 306, 3-(1-methyl-1H-pyrazol-4-yl)-N-phenyl-1-((1s,4s)-4-((3-(trifluoromethyl)pyridin-2-yl)oxy)cyclohexyl)-1H-pyrazolo[4,3-c]pyridin-6-amine], the half-inhibitory concentration (IC50) in assay [1] lay in the range of 1000 to 10000 nM.
Regarding `CCNc1cc2c(cn1)c(C1CCCC1)nn2[C@H]1CC[C@@H](Oc2nccc(C(F)(F)F)c2F)CC1` [Example 321, 3-cyclopentyl-N-ethyl-1-((1s,4s)-4-((3-fluoro-4-(trifluoromethyl)pyridin-2-l)oxy)cyclohexyl)-1H-pyrazolo[4,3-c]pyridin-6-amine], in assay [3], the IC50 fell in the range of 1000 to 10000 nM.
On the same count and under the same terms, the same measure for `CCNc1cc2c(cn1)c(C1CCCCC1)nn2[C@H]1CC[C@@H](Oc2nccc(C(F)(F)F)c2F)CC1` [Example 322, 3-cyclohexyl-N-ethyl-1-((1s,4s)-4-((3-fluoro-4-(trifluoromethyl)pyridin-2-yl)oxy)cyclohexyl)-1H-pyrazolo[4,3-c]pyridin-6-amine]: 1000 to 10000 nM.
Take `CNc1cc2c(cn1)c(-c1cnn(C)c1)nn2[C@H]1CC[C@@H](Oc2ccc(F)cc2CN(C)C)CC1` [Example 370, 1-((1s,4s)-4-(2-((dimethylamino)methyl)-4-fluorophenoxy)cyclohexyl)-N-methyl-3-(1-methyl-1H-pyrazol-4-yl)-1H-pyrazolo[4,3-c]pyridin-6-amine]: the IC50 in assay [1] is less than 10 nM.
Take `Cn1cc(-c2nn([C@H]3CC[C@@H](Oc4ccccc4F)CC3)c3cc(NCCC4CC4)ncc23)cn1` [Example 402, N-(2-cyclopropylethyl)-1-((1s,4s)-4-(2-fluorophenoxy)cyclohexyl)-3-(1-methyl-1H-pyrazol-4-yl)-1H-pyrazolo[4,3-c]pyridin-6-amine]: in assay [1], the IC50 is 1000 to 10000 nM.
On to `CCCNc1cc2c(cn1)c(-c1cnn(C)c1)nn2[C@H]1CC[C@@H](Oc2ccccc2F)CC1` [Example 405, 1-((1s,4s)-4-(2-fluorophenoxy)cyclohexyl)-3-(1-methyl-1H-pyrazol-4-yl)-N-propyl-1H-pyrazolo[4,3-c]pyridin-6-amine], for which, in assay [3], the IC50 was less than 10 nM.
In the case of `CNc1cc2c(cn1)c(-c1cnn(C)c1)nn2[C@H]1CC[C@@H](Oc2cccc(C(=O)N(C)C)c2)CC1` [Example 454], the IC50 in assay [3] lay in the range of 1000 to 10000 nM.
The same measure, in the same setting: as for `CNc1cc2c(cn1)c(-c1cnn(C)c1)nn2[C@H]1CC[C@@H](Oc2cccc(C(=O)NC(C)C)c2)CC1` [Example 455, N-isopropyl-3-(((1s,4s)-4-(3-(1-methyl-1H-pyrazol-4-yl)-6-(methylamino)-1H-pyrazolo[4,3-c]pyridin-1-yl)cyclohexyl)oxy)benzamide], the figure is 1000 to 10000 nM; as for `CNc1cc2c(cn1)c(-c1cnn(C)c1)nn2[C@H]1CC[C@@H](Oc2ccc(C(=O)N(C)C)cc2)CC1` [Example 457, N,N-dimethyl-4-(((1s,4s)-4-(3-(1-methyl-1H-pyrazol-4-yl)-6-(methylamino)-1H-pyrazolo[4,3-c]pyridin-1-yl)cyclohexyl)oxy)benzamide], 1000 to 10000 nM; as for `CNc1cc2c(cn1)c(-c1cnn(C)c1)nn2[C@H]1CC[C@@H](Oc2ccc(C(=O)NC(C)C)cc2)CC1` [Example 458, N-isopropyl-4-(((1s,4s)-4-(3-(1-methyl-1H-pyrazol-4-yl)-6-(methylamino)-1H-pyrazolo[4,3-c]pyridin-1-yl)cyclohexyl)oxy)benzamide], 1000 to 10000 nM.
Same read-out and setting: the same measure for `CNc1cc2c(cn1)c(-c1cnn(C)c1)nn2[C@H]1CC[C@@H](Oc2ccc(C(=O)NCCOC)cc2)CC1` [Example 459, N-(2-methoxyethyl)-4-(((1s,4s)-4-(3-(1-methyl-1H-pyrazol-4-yl)-6-(methylamino)-1H-pyrazolo[4,3-c]pyridin-1-yl)cyclohexyl)oxy)benzamide]: 1000 to 10000 nM.
For the molecule `CCNc1cc2c(cn1)c(-c1cnn(C)c1)nn2[C@H]1CC[C@@H](Oc2ccc(C(=O)NC)cc2F)CC1` [Example 460, 4-(((1s,45)-4-(6-(ethylamino)-3-(1-methyl-1H-pyrazol-4-yl)-1H-pyrazolo[4,3-c]pyridin-1-yl)cyclohexyl)oxy)-3-fluoro-N-methylbenzamide], the IC50 in assay [1] is less than 10 nM.
For the molecule `CNc1cc2c(cn1)c(-c1cnn(C)c1)nn2[C@H]1CC[C@@H](Oc2cccc(C(=O)NC(C)C)c2F)CC1` [Example 466, 2-fluoro-N-isopropyl-3-(((1s,4s)-4-(3-(1-methyl-1H-pyrazol-4-yl)-6-(methylamino)-1H-pyrazolo[4,3-c]pyridin-1-yl)cyclohexyl)oxy)benzamide], in assay [3], the IC50 is 1000 to 10000 nM.
Same read-out and setting: the same measure for `CCNc1cc2c(cn1)c(-c1cnn(C)c1)nn2[C@H]1CC[C@H](Oc2cccc(F)c2)CC1` [Example 475, N-ethyl-1-((1r,4r)-4-(3-fluorophenoxy)cyclohexyl)-3-(1-methyl-1H-pyrazol-4-yl)-1H-pyrazolo[4,3-c]pyridin-6-amine]: 1000 to 10000 nM.
As for `Cn1cc(-c2nn([C@H]3CC[C@@H](Oc4cccc(F)c4F)CC3)c3cc(Nc4ccccc4)ncc23)cn1` [Example 486, 1-((1s,4s)-4-(2,3-difluorophenoxy)cyclohexyl)-3-(1-methyl-1H-pyrazol-4-yl)-N-phenyl-1H-pyrazolo[4,3-c]pyridin-6-amine], the half-inhibitory concentration (IC50) in assay [1] lay within 1000 to 10000 nM.
